# Reference: patent US20240300932A1, “N-PHENYLIMINE DERIVATIVE AND PREPARATION METHOD AND USE THEREOF” (Guizhou University, priority 2023, published 2024)
# Tests used:
# Assay in all cases: Post-emergence herbicidal activity test (stem and leaf spray, pot culture)
# Type in all cases: in vivo
# Details in all cases: 3 weeks after spraying
# [1] = system: Abutilon theophrasti
# Outline: (§1)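 Activity is given as a 0–5 grade of fresh weight growth control, scored three weeks after a single stem-and-leaf spray. Weeds in farmland loam were treated at the 2- to 3-leaf stage at 10, 5 and 2.5 g/mu, with methyl oleate added as synergist.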
# [2] = system: Echinochloa crusgalli
# Outline: as §1
# [3] = system: Amaranthus retroflexus
# Outline: as §1
# [4] = system: Setaria viridis
# Outline: as §1
# [5] = system: Portulaca oleracea
# Outline: as §1
# [6] = system: Trifoliumre pensL.
# Outline: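 Pot-grown weeds in loam (pH 7), greenhouse at 20–30 °C, sprayed once post-emergence at the 2–3-leaf stage. Compound in acetone with Tween 80 plus methyl oleate oil (1.5 L/ha), applied at 10, 5 and 2.5 g/mu by spray tower. Effect scored 3 weeks after spraying, averaged over three repeats.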
structure (smiles),measurement,setting,value
O=C1C2=C(CCCC2)C(=O)N1c1cc(OCc2nc(-c3ccccc3F)no2)c(Cl)cc1F [Compound A12],"Post-emergence herbicidal activity, A. theophrasti (grade)",[1]; dosage 2.5 g/mu,5 (Grade 5: the growth control rate is greater than or equal to 85%)
same,"Post-emergence herbicidal activity, A. theophrasti (grade)",[1]; dosage 5 g/mu,5 (Grade 5: the growth control rate is greater than or equal to 85%)
same,"Post-emergence herbicidal activity, A. theophrasti (grade)",[1]; dosage 10 g/mu,5 (Grade 5: the growth control rate is greater than or equal to 85%)
same,"Post-emergence herbicidal activity, E. crusgalli (grade)",[2]; dosage 2.5 g/mu,1 (Grade 1: the growth control rate is greater than or equal to 5% and less than 20%)
same,"Post-emergence herbicidal activity, E. crusgalli (grade)",[2]; dosage 5 g/mu,2 (Grade 2: the growth control rate is greater than or equal to 20% and less than 40%)
same,"Post-emergence herbicidal activity, E. crusgalli (grade)",[2]; dosage 10 g/mu,3 (Grade 3: the growth control rate is greater than or equal to 40% and less than 60%)
same,"Post-emergence herbicidal activity, A. retroflexus (grade)",[3]; dosage 2.5 g/mu,5 (Grade 5: the growth control rate is greater than or equal to 85%)
same,"Post-emergence herbicidal activity, A. retroflexus (grade)",[3]; dosage 5 g/mu,5 (Grade 5: the growth control rate is greater than or equal to 85%)
same,"Post-emergence herbicidal activity, A. retroflexus (grade)",[3]; dosage 10 g/mu,5 (Grade 5: the growth control rate is greater than or equal to 85%)
same,"Post-emergence herbicidal activity, S. viridis (grade)",[4]; dosage 2.5 g/mu,2 (Grade 2: the growth control rate is greater than or equal to 20% and less than 40%)
same,"Post-emergence herbicidal activity, S. viridis (grade)",[4]; dosage 5 g/mu,3 (Grade 3: the growth control rate is greater than or equal to 40% and less than 60%)
same,"Post-emergence herbicidal activity, S. viridis (grade)",[4]; dosage 10 g/mu,4 (Grade 4: the growth control rate is greater than or equal to 60% and less than 85%)
same,"Post-emergence herbicidal activity, P. oleracea (grade)",[5]; dosage 2.5 g/mu,4 (Grade 4: the growth control rate is greater than or equal to 60% and less than 85%)
same,"Post-emergence herbicidal activity, P. oleracea (grade)",[5]; dosage 5 g/mu,5 (Grade 5: the growth control rate is greater than or equal to 85%)
same,"Post-emergence herbicidal activity, P. oleracea (grade)",[5]; dosage 10 g/mu,5 (Grade 5: the growth control rate is greater than or equal to 85%)
same,"Post-emergence herbicidal activity, Trifoliumre pensL. (grade)",[6]; dosage 2.5 g/mu,4 (Grade 4: the growth control rate is greater than or equal to 60% and less than 85%)
same,"Post-emergence herbicidal activity, Trifoliumre pensL. (grade)",[6]; dosage 5 g/mu,5 (Grade 5: the growth control rate is greater than or equal to 85%)
same,"Post-emergence herbicidal activity, Trifoliumre pensL. (grade)",[6]; dosage 10 g/mu,5 (Grade 5: the growth control rate is greater than or equal to 85%)
